Measurements published in patent US20050197286A1, “Method for control of depression using c terminal growth hormone (gh) fragment” (priority 2002, published 2005).
Entries after “also recorded” stand apart in the source; their conditions may differ.

How the values were obtained:
[1] = system: patients suffering from growth hormone deficiency; details: several studies, references 1-24; cited from earlier work
[2] = system: obese adult male subjects; assay: Double-blind multiple oral dose escalation study of AOD9604 (Example 3, Phase 2A); type: in vivo, human
From the text: The objective of this study was to characterise the safety and tolerability and the pharmacodynamic profile of AOD9604 following multiple oral administration to obese adult male subjects.
This was a double-blind, placebo-controlled, 3 period, oral dose, dose escalation study with randomization directed such that each subject received 7 doses of active study drug or placebo over one 7-day period, i.e. one dose per day for 7 days. There were up to three dose levels of AOD9604 and placebo studied in 3 cohorts of 12 subjects each. In each study period, 12 subjects were randomised so that 9 received active study drug and 3 received placebo. There was a period of 7 days between study periods to allow for appropriate safety review and permission to progress to the next dose level.
The eligibility criteria of subjects were as for Example 2, except that the age range was 18 to 60 years of age, and the BMI threshold was ≧30 kg/m^2, since the primary aim of the study was safety assessment. The restrictions on the subjects and the conduct of the study again were generally as in Example 2.
There were three study periods, and the dose strengths used were 10 mg, 30 mg, 60 mg and placebo, with seven doses per study period. The formulation of AOD9604 and placebo were as for Example 2.
For each treatment, capsules were administered orally every day for 7 days with 240 mL of room temperature water following at least a 12 hour overnight fast.
The patients were asked to complete the SF-36 Quality of Life Questionnaire (Ware J. J. and Sherbourne C. D. (1992) The MOS 36-item short-form health survey (SF-36). I. Conceptual framework and item selection. Medical Care; 30:473-83) at days 0, 8 and 14. The results are illustrated in FIG. 2, A and B and FIG. 3, A and B. The SF-36 questionnaire is different to the questionnaire used in the Phase 2A […] single dose trial of Example 2. SF-36 provides only positive numerical values for mood assessment, with higher values indicating greater happiness, and lower values indicating lower happiness. (The graphs in FIGS. 2 and 3 however do have some negative values because they are representing the change in mood from pre-treatment.) FIGS. 2 and 3 show a similar bell-shaped dose response on mood as that observed in Example 1 (only it is a reversed bell-shape in comparison to Example 1). […] There was an improvement in the mental aggregate scores, relative to placebo, at the 10 mg dose on day 8, and a worsening at the 30 mg and 60 mg doses relative to placebo.

[3] = system: healthy lean males; type: in vivo, human
Method: The selection of 25, 50 and 100 μg/kg doses of AOD9604 used in this study was based on the results from a previous Phase I study, conducted from February-June 2001, in healthy lean males using a dose range of 25-400 μg/kg AOD9604.

[4] = system: obese adult male subjects; assay: Double-blind single oral dose study of AOD9604 (Example 2, Phase 2A); type: in vivo, human
From the text: The objective of this study was to characterise the safety, tolerability, pharmacodynamic and pharmacokinetic effects of AOD9604 following single oral administration to obese adult male subjects.
The study was a double-blind, placebo controlled, 4×4 Williams Latin Square design, single oral dose study, planned to include 16 subjects. Each subject received active study drug on each of three occasions and placebo on one occasion. There was a washout period of 14 days between the doses administered in each study period.
Eligibility criteria were the same as for Example 1, except that the age range of the subjects was 35 to 60 years of age inclusive.
There were four study treatments, and each subject received each of the four treatments on four separate occasions, separated by a fourteen day wash out period. The dose strengths were as follows: • 10 mg (76.9 μg/kg for 130 kg subject); • 30 mg (230.8 μg/kg for 130 kg subject); • 60 mg (461.5 μg/kg for 130 kg subject); and • placebo.
The active pharmaceutical formulation was Size-0 capsules (Shionogi Qualicaps Co. Ltd.) of 10 mg AOD9604 containing 3.9% AOD9604, 84.1% Mannitol (USP) and 12% PEG3350, USP. Placebo capsules contained excipients only.
For each treatment, capsules were administered orally with 240 mL of room temperature water following at least a 12 hour overnight fast. Study personnel inspected the oral cavity to confirm that the subject has ingested the study treatment following each dose.
In the Phase 2A single dose intravenous trial, reported in Example 1, mild euphoria was reported by several patients who received drug and none who received placebo. The patients taking part in this single dose oral treatment were therefore asked to complete the Nottingham Health Profile questionnaire (see Wiklund I. (1990) The Nottingham Health Profile—a measure of health-related quality of life. Scand. J. Prim. Health Care Suppl. 1:15-8) before dose and 7 days after dose.

[5] = system: obese adult male subjects; assay: Double-blind, placebo-controlled single intravenous dose study of AOD9604 (Example 1); type: in vivo, human
Method: The objective of this study was to characterise the safety, tolerability and pharmacodynamic effects of AOD9604 following single intravenous administration to obese adult male subjects. The study was performed by CMAX Pty Ltd under contract to Metabolic Pharmaceuticals Ltd.
The study was designed as a double-blind, placebo-controlled, 4×4 Williams Latin Square design, intravenous dose study included twenty four (obese Body mass index (BMI) of ≧35 kg/m^2 and a waist circumference of ≧110 cm) adult subjects with each subject receiving active study drug on each of three occasions and placebo on one occasion. Treatment allocation was randomised according to a Master Randomisation Schedule.
Subjects who provided written informed consent and who met all inclusion/exclusion criteria were randomised to receive each of the four treatments according to the study Master Randomisation Schedule. The subjects were randomised to receive a single dose of 25, 50 and 100 μg/kg AOD9604 and a single dose of placebo (5% mannitol solution) over the four periods of the study. Dose administration was by intravenous infusion, and was conducted over a period of 10 minutes.
During each in-clinic stay, blood samples were collected at specified times both prior to and following dose administration for the determination of pharmacodynamic parameters of non-esterified fatty acids (NEFA), glycerol, glucose and IGF-1. For the purposes of safety monitoring, the physical condition (physical examination, blood pressure, pulse, temperature and general well being) of the subjects was monitored both prior to and at specified intervals during each study period. ECG monitoring was performed prior to the infusion, at the end of the infusion and at specified times following the end of the infusion. Blood samples were also collected for assessment of haematological and biochemical parameters. Subjects were released from the clinic following the 24 hour post-dose blood sample and physical examination. Subjects returned to the clinic for the following period after a 7-day washout period. Within 14 days of the final period (Period 4), an Exit Evaluation was performed, involving the following assessments: physical examination (including ECG monitoring), body height and weight determination, vital sign measurements, questions regarding adverse events, collection of blood samples for the assessment of haematological and biochemical parameters, and collection of a urine sample for urinalysis and microscopy. A further 5 mL blood sample was collected and the serum stored for possible antibody analysis to be done at a later date.
Treatment A: A single dose of 25 μg/kg AOD9604 administered intravenously via an infusion pump over a 10 minute period.
Treatment B: A single dose of 50 μg/kg AOD9604 administered intravenously via an infusion pump over a 10 minute period.
Treatment C: A single dose of 100 μg/kg AOD9604 administered intravenously via an infusion pump over a 10 minute period.
Each subject received one of each of three doses of the active study drug, AOD9604 (25, 50, and 100 μg/kg) on three occasions and a placebo on one occasion. The doses were administered as intravenous infusions of 10 minute duration with a wash-out period of 7 days between each consecutive treatment. Subjects were not permitted to eat or drink anything, except for water, for at least 10 hours prior to and 2 hours following administration of the dose. Meals were timed in relation to the end of dosing, as follows: Snack (2 hours and 5 minutes), Lunch (4 hours and 5 minutes), Dinner (10 hours and 5 minutes) and Snack (13 hours and 5 minutes).

[6] = system: C57Bl/6J (Ob/Ob) mouse; details: Australian patent No. 693478; cited from earlier work
[7] = single iv infusion 25, 50 or 100 μg/kg, only in periods with active drug, none with placebo

Substance: Intact growth hormone: intact growth hormone, the full hormone from which the C-terminal fragments derive
- effect on mood [1]: positive effects on mood

Substance: Tyr-hGH 177-191 [AOD9604]
- gastrointestinal adverse effects ([2]; 60 mg dose group, particularly in the hour after dose): increase in mild gastrointestinal effects
- significance of body weight effect in subgroup ([2]; age 35+ and BMI 35+ group, p<0.05): statistically significant
- SF-36 mental aggregate relative to placebo, all doses ([2]; at 8 days vs day 0, 10, 30, 60 mg/day oral for 7 days): improvement in the mental aggregate for all doses relative to placebo
- significance of SF-36 improvement at 10 mg ([2]; at 8 days, 10 mg/day oral, p<0.05): statistically significant
- SF-36 physical aggregate relative to placebo ([2]; at 14 days, dose 60 mg/day, only aggregate/dose worse than placebo): worse result that the placebo
- SF-36 mental aggregate scores relative to placebo, 10 mg ([2]; day 8, 10 mg/day oral): improvement
- SF-36 mental aggregate scores relative to placebo, 30 mg and 60 mg ([2]; day 8, 30 mg and 60 mg/day oral): worsening
- body weight difference (anti-obesity effect) ([2]; morning of day 1 vs day 8, bell-shaped dose response): clear activity
- incidence of adverse events, active vs placebo ([2]; multiple oral doses, 7 days): no observable trends
- vital signs, ECG, physical examination and clinical laboratory assessments ([2]; multiple oral doses, 7 days): no clinically significant changes
- pharmacodynamic response at 50 μg/kg ([3]; 50 μg/kg): a response had been shown
- pharmacodynamic response at high dose ([3]; dose increased to 200 μg/kg and higher): response diminished
- pharmacodynamic response ([3]; iv dose range 25-400 μg/kg): A pharmacodynamic response was seen
- mood, Nottingham Health Profile questionnaire, response by dose ([4]; 30 mg single oral dose, lower is happier): greatest response
- non-esterified fatty acid (NEFA) levels compared to placebo ([4]; 1, 2 and 4 hours after AOD9604 27.6 mg oral, p<0.05): statistically significantly increased
- NEFA response ([4]; AOD9604 55.2 mg oral, compared with 27.6 mg): lower response
- mood, Nottingham Health Profile questionnaire ([4]; before dose vs 7 days after dose, all single oral doses (10, 30, 60 mg), placebo worsened): improvement of mood
- tolerability ([4]; over the oral dose range 10-60 mg single dose): well tolerated
- incidence of adverse events, active vs placebo ([4]; single oral doses): no observable trends
- vital signs, ECG, physical examination and clinical laboratory assessments ([4]; single oral doses): no clinically significant changes
- mean serum NEFA compared to placebo ([5]; 2 hours post dose, all AOD9604 doses (25, 50, 100 μg/kg iv)): rose more
- severity of euphoria ([5]; after a single iv dose of active drug): mild to moderate euphoria; also recorded: mild or moderate euphoria
- weight loss in older patients compared to placebo ([5]; aged 35+ (N=13), highest dose 100 μg/kg iv): highly significant weight loss
- body weight change compared to placebo ([5]; measured 1 week after each iv dose): lower in the treated groups than in those receiving placebo
- significance of NEFA effect in older patients ([5]; patients aged 35+, 2 hours post dose): highly significant
- subjects experiencing euphoria (number of subjects) [5, 7]: 5/23
- subjects experiencing euphoria (percentage) [5, 7]: 21.7%

Substance: hGH 177-191: synthetic peptide corresponding to amino acid residues 177-191 of the human growth hormone sequence (LRIVQCRSVEGSCGF; UniProt P01241 203-217, looked up, fragment)
- body weight gain and adipose tissue mass [6]: reduce body weight gain and adipose tissue mass
